The values that follow come from patent US12145947B2, “Pyrimidine based modulators and uses thereof” (Quanta Therapeutics, Inc., priority 2022, dated 2024).

The subject of assay [1] is AGS cells (KRAS G12D), phospho-ERK. Nature of the assay: pERK In Cell Western (ICW) assay (Method B), AGS cells. It is filed as cell-based. Particulars: Homo sapiens. As for the experimental part: pERK ICW is a high throughput screening assay to evaluate the cellular potency of mutant KRAS small molecule inhibitors. KRAS mutant cell lines AGS and GP2D (KRAS^G12D) were purchased from ATCC and maintained respectively in RPMI and DMEM medium supplemented with 10% fetal bovine serum and Penicillin/Streptomycin.
Cells grown in exponential phase were trypsinized, resuspended in fresh media, and viable cells were counted using a cell counter with Trypan Blue (BioRad TC20). Cells were seeded into 384-well plate (Greiner 781091) at density of 5,000 cells/well for AGS and 10,000 cells/well for GP2D and allowed to grow overnight in a 37° C. CO2 incubator. The next day, compounds were dispensed into wells with a ½ log, 10-point serial dilution and top concentration of […] using Tecan D300e dispenser and incubated for 3 hours in a 37° C. CO2 incubator. Cells were then fixed with paraformaldehyde (Electron Microscopy Sciences, 15710, 4% final concentration) for 30 min, permeabilized with wash buffer (1×PBS+0.1% Triton X-100) for 30 min and blocked with Odyssey blocking buffer (Li—COR 927-70001) for 1 hour, all at room temperature (RT). Phospho-ERK antibody (CST 4370L) was diluted 1:500 in Odyssey blocking+0.2% Tween 20 and incubated with cells overnight at 4° C. The next day, plates were washed 5× with wash buffer, incubated with IRDye 800 CW, Goat anti-Rabbit secondary antibody (Li—COR 926-32211, 1:500) and DRAQ5 (CST 4084L, 1:5,000) diluted in Odyssey blocking+0.2% Tween 20 for 1 hour, washed 5×, and imaged on an Odyssey CLx imaging system.
For data analysis, signal intensities from 800 (phosphor-ERK) and 700 (DRAQ5) channels were extracted, and phospho-ERK signals were normalized to DRAQ5 signals for each well and percent of DMSO control values were computed. Data were then imported into Graphpad Prism to compute half-maximal inhibitory concentrations (IC50) using a 4-parameter variable slope model. Z-factor for each plate was computed from signals derived from wells treated with either DMSO or […] of Trametinib. AGS pERK ICW (Method B) IC50 (uM) values of selected compounds are depicted in Table 2 with compounds having a value 0.001 uM to 0.01 uM as ++++; >0.01 uM to 0.1 uM as +++; >0.1 uM to 1 uM as ++; 1 uM to 10 uM as + and >10 uM as NA.

The next assay addresses T1, KRAS G12D/RAF1 (Homo sapiens, UniProt P01116, G12D).
T1 construct: His6-MBP (N, cleaved yes); made in house; host or cells: E. coli
Nature of the assay: Protein-protein interaction (PPI) HTRF assay KRAS G12D/RAF1. The class given is binding. A digest of the protocol:
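HTRF pairing of His-tagged RAF1 (52-131) plus Tb-cryptate donor with GppNHp-exchanged biotin-RAS (KRAS 1-169 wt/G12D/G12V, NRAS wt) plus streptavidin-d2 acceptor; compound sits 30 min with RAS first, then 1 h RT with RAF1. IC50 derived from 665/615 ratio, untagged RAF1 defining full inhibition.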
A general note: In TR-FRET formats the signal depends on donor and acceptor labels being close together.

[2] abbreviates: Table 4, pERK, 3 hours, read-out: ICW-AGS.

Structures are written as SMILES. Like-named read-outs stand apart in the source and are kept apart here.

T1 sequence (P01116 with tags, fused parts or gaps isoform P01116-2 G12D): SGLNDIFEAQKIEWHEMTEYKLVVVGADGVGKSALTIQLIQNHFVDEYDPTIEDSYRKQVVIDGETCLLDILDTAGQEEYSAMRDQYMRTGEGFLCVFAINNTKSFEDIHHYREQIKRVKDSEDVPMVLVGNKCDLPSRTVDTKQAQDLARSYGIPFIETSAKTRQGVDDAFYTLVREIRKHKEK

For `CN(C)C(=O)c1nn2c(c1Cl)CN(c1nc(OC[C@@]34CCCN3C[C@H](F)C4)nc(N3CC4(CCc5sc(N)c(C#N)c54)C3)c1C#N)CCC2` [Compound 2, 5-[6-(2-amino-3-cyano-spiro[5,6-dihydrocyclopenta[b]thiophene-4,3′-azetidine]-1′-yl)-5-cyano-2-[[(2R,8S)-2-fluoro-1,2,3,5,6,7-hexahydropyrrolizin-8-yl]methoxy]pyrimidin-4-yl]-3-chloro-N,N-dimethyl-4,6,7,8-tetrahydropyrazolo[1,5-a][1,4]diazepine-2-carboxamide], the IC50 lay in the range of 0.01 to 0.1 µM in assay [1] (Table 2, 3 hours, ICW, read-out: pERK-AGS (uM) Method B); 0.01 to 0.1 µM in assay [1] (setting [2]); 100 to 1000 nM on KRAS G12D/RAF1 (Table 2); 100 to 1000 nM at KRAS G12D/RAF1 (Table 4).
In the case of `CN(C)C(=O)c1nn2c(c1Cl)CN(c1nc(OC[C@@]34CCCN3C[C@H](F)C4)nc(N3CC4(CCCc5sc(N)c(C#N)c54)C3)c1C#N)CCC2` [Compound 3, 5-[6-(2-amino-3-cyano-spiro[6,7-dihydro-5H-benzothiophene-4,3′-azetidine]-1′-yl)-5-cyano-2-[[(2R,8S)-2-fluoro-1,2,3,5,6,7-hexahydropyrrolizin-8-yl]methoxy]pyrimidin-4-yl]-3-chloro-N,N-dimethyl-4,6,7,8-tetrahydropyrazolo[1,5-a][1,4]diazepine-2-carboxamide], the figures for the IC50 (in assay [1] (setting [2]); against KRAS G12D/RAF1 (Table 2); at KRAS G12D/RAF1 (Table 4)) were 0.01 to 0.1 µM, 10000 to 100000 nM and 1000 to 10000 nM, respectively.
As for `N#Cc1c(N2C[C@H]3CC[C@@H](C2)N3)nc(OCC2(CN3CCOCC3)CC2)nc1N1CC2(CCc3sc(N)c(C#N)c32)C1` [Compound 4, 2-amino-1′-[5-cyano-2-[[1-(morpholinomethyl)cyclopropyl]methoxy]-6-[(1R,5S)-3,8-diazabicyclo[3.2.1]octan-3-yl]pyrimidin-4-yl]spiro[5,6-dihydrocyclopenta[b]thiophene-4,3′-azetidine]-3-carbonitrile], the values for the IC50 (in assay [1] (setting [2]); against KRAS G12D/RAF1 (Table 4)) were 0.001 to 0.01 µM and less than 100 nM, respectively.
The like results for `CN(C)C(=O)c1nn2c(c1Cl)CN(c1nc(OCC3(CN4CCOCC4)CC3)nc(N3CC4(CCc5sc(N)c(C#N)c54)C3)c1C#N)CCC2` [Compound 5, 5-[6-(2-amino-3-cyano-spiro[5,6-dihydrocyclopenta[b]thiophene-4,3′-azetidine]-1′-yl)-5-cyano-2-[[1-(morpholinomethyl)cyclopropyl]methoxy]pyrimidin-4-yl]-3-chloro-N,N-dimethyl-4,6,7,8-tetrahydropyrazolo[1,5-a][1,4]diazepine-2-carboxamide] were, in that order, 0.01 to 0.1 µM and 1000 to 10000 nM.
`N#Cc1c(N)sc2c1C1(CC2)CN(c2nc(OC[C@@]34CCCN3C[C@H](F)C4)nc(N3CCC[C@]4(C3)NC(=O)NC4=O)c2F)C1` [Compound 7, 2-amino-1′-[6-[(5R)-2,4-dioxo-1,3,9-triazaspiro[4.5]decan-9-yl]-5-fluoro-2-[[(2R,8S)-2-fluoro-1,2,3,5,6,7-hexahydropyrrolizin-8-yl]methoxy]pyrimidin-4-yl]spiro[5,6-dihydrocyclopenta[b]thiophene-4,3′-azetidine]-3-carbonitrile]: the IC50 in assay [1] (setting [2]) was in the range of 1 to 10 µM; against KRAS G12D/RAF1 (Table 4), 100 to 1000 nM.
Regarding `CN(C)C(=O)c1cc2n(n1)CCCN(c1nc(OC[C@@]34CCCN3C[C@H](F)C4)nc(N3CC4(CCc5sc(N)c(C#N)c54)C3)c1C#N)C2` [Compound 8, 5-[6-(2-amino-3-cyano-spiro[5,6-dihydrocyclopenta[b]thiophene-4,3′-azetidine]-1′-yl)-5-cyano-2-[[(2R,8S)-2-fluoro-1,2,3,5,6,7-hexahydropyrrolizin-8-yl]methoxy]pyrimidin-4-yl]-N,N-dimethyl-4,6,7,8-tetrahydropyrazolo[1,5-a][1,4]diazepine-2-carboxamide], the IC50 is 0.01 to 0.1 µM in assay [1] (setting [2]) and 1000 to 10000 nM against KRAS G12D/RAF1 (Table 4).
For the compound `CN(C)C(=O)c1nn2c(c1Cl)CN(c1nc(OC[C@@]34CCCN3C[C@H](F)C4)nc(N3CC4(CCc5sc(N)c(C#N)c54)C3)c1F)CCC2` [Compound 9, 5-[6-(2-amino-3-cyano-spiro[5,6-dihydrocyclopenta[b]thiophene-4,3′-azetidine]-1′-yl)-5-fluoro-2-[[(2R,8S)-2-fluoro-1,2,3,5,6,7-hexahydropyrrolizin-8-yl]methoxy]pyrimidin-4-yl]-3-chloro-N,N-dimethyl-4,6,7,8-tetrahydropyrazolo[1,5-a][1,4]diazepine-2-carboxamide], the IC50 in assay [1] (setting [2]) lay in the range of 0.1 to 1 µM; against KRAS G12D/RAF1 (Table 4), 1000 to 10000 nM.
As to `CN(C)C(=O)c1nn2c(c1Cl)CN(c1nc(OC[C@@]34CCCN3C[C@H](F)C4)nc(N3CC4(CCCCc5sc(N)c(C#N)c54)C3)c1C#N)CCC2` [Compound 10, 5-[6-(2-amino-3-cyano-spiro[5,6,7,8-tetrahydrocyclohepta[b]thiophene-4,3′-azetidine]-1′-yl)-5-cyano-2-[[(2R,8S)-2-fluoro-1,2,3,5,6,7-hexahydropyrrolizin-8-yl]methoxy]pyrimidin-4-yl]-3-chloro-N,N-dimethyl-4,6,7,8-tetrahydropyrazolo[1,5-a][1,4]diazepine-2-carboxamide], the IC50 lay in the range of 0.01 to 0.1 µM in assay [1] (setting [2]) and 1000 to 10000 nM against KRAS G12D/RAF1 (Table 4).
Take `N#Cc1c(N2CC3(CCc4sc(N)c(C#N)c43)C2)nc(OC[C@@]23CCCN2C[C@H](F)C3)nc1N1CCC[C@]2(C1)NC(=O)NC2=O` [Compound 11, 2-amino-1′-[5-cyano-6-[(5R)-2,4-dioxo-1,3,9-triazaspiro[4.5]decan-9-yl]-2-[[(2R,8S)-2-fluoro-1,2,3,5,6,7-hexahydropyrrolizin-8-yl]methoxy]pyrimidin-4-yl]spiro[5,6-dihydrocyclopenta[b]thiophene-4,3′-azetidine]-3-carbonitrile]: the IC50 was 1 to 10 µM in assay [1] (setting [2]) and 100 to 1000 nM against KRAS G12D/RAF1 (Table 4).
In the case of `N#Cc1c(N2CCCC3(C2)NC(=O)NC3=O)nc(OC[C@@]23CCCN2C[C@H](F)C3)nc1N1CC2(CCc3sc(N)c(C#N)c32)C1` (stereo partly drawn) [Compound 12, 2-amino-1′-[5-cyano-6-(2,4-dioxo-1,3,9-triazaspiro[4.5]decan-9-yl)-2-[[(2R,8S)-2-fluoro-1,2,3,5,6,7-hexahydropyrrolizin-8-yl]methoxy]pyrimidin-4-yl]spiro[5,6-dihydrocyclopenta[b]thiophene-4,3′-azetidine]-3-carbonitrile], the figures for the IC50 (in assay [1] (setting [2]); on KRAS G12D/RAF1 (Table 4)) were 1 to 10 µM and 100 to 1000 nM, respectively.
On to `CC(=O)c1nn2c(c1Cl)CN(c1nc(OC[C@@]34CCCN3C[C@H](F)C4)nc(N3CC4(CCc5sc(N)c(C#N)c54)C3)c1C#N)CCC2` [Compound 13, 1′-[6-(2-acetyl-3-chloro-4,6,7,8-tetrahydropyrazolo[1,5-a][1,4]diazepin-5-yl)-5-cyano-2-[[(2R,8S)-2-fluoro-1,2,3,5,6,7-hexahydropyrrolizin-8-yl]methoxy]pyrimidin-4-yl]-2-amino-spiro[5,6-dihydrocyclopenta[b]thiophene-4,3′-azetidine]-3-carbonitrile], for which the IC50 fell in the range of 0.01 to 0.1 µM in assay [1] (setting [2]) and 1000 to 10000 nM against KRAS G12D/RAF1 (Table 4).
Take `CC1CC2(CN(c3nc(OC[C@@]45CCCN4C[C@H](F)C5)nc(N4CCCn5nc(C(=O)N(C)C)c(Cl)c5C4)c3C#N)C2)c2c1sc(N)c2C#N` (stereo partly drawn) [Compound 14, 5-[6-(2-amino-3-cyano-6-methyl-spiro[5,6-dihydrocyclopenta[b]thiophene-4,3′-azetidine]-1′-yl)-5-cyano-2-[[(2R,8S)-2-fluoro-1,2,3,5,6,7-hexahydropyrrolizin-8-yl]methoxy]pyrimidin-4-yl]-3-chloro-N,N-dimethyl-4,6,7,8-tetrahydropyrazolo[1,5-a][1,4]diazepine-2-carboxamide]: the IC50 in assay [1] (setting [2]) lay within 0.01 to 0.1 µM; on KRAS G12D/RAF1 (Table 4), 100 to 1000 nM.
For `N#Cc1c(N)sc2c1C1(CC2)CN(c2nc(OC[C@@]34CCCN3C[C@H](F)C4)nc(N3C[C@H]4CC[C@@H](C3)N4)c2F)C1` [Compound 15, 2-amino-1′-[6-(3,8-diazabicyclo[3.2.1]octan-3-yl)-5-fluoro-2-[[(2R,8S)-2-fluoro-1,2,3,5,6,7-hexahydropyrrolizin-8-yl]methoxy]pyrimidin-4-yl]spiro[5,6-dihydrocyclopenta[b]thiophene-4,3′-azetidine]-3-carbonitrile], the IC50 lay in the range of 0.01 to 0.1 µM in assay [1] (setting [2]) and 100 to 1000 nM at KRAS G12D/RAF1 (Table 4).
